According to the supplement of paper PMC10307832:

What was measured:
Test in all cases: relative viability (nuclei count vs DMSO), 5 days (fraction); higher = more cells survive
[1] = compound: CN(C)CC1=CC(=CC=C1)N=C(C2=CC=CC=C2)C3=C(NC4=C3C=CC(=C4)C(=O)N(C)C)O + CS(=O)(=O)N1CCN(Cc2cc3nc(-c4cccc5[nH]ncc45)nc(N4CCOCC4)c3s2)CC1 [Pictilisib] (partner 1 µM)
Outline: (§1)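 Relative viability was taken as the ratio of nuclei in treated wells to nuclei in vehicle wells. Lung cancer cell lines in 1536-well plates received compounds by pin tool one day after seeding, either one drug alone or a fixed anchor-drug dose plus five library-drug doses (not always all listed) in √10 steps. Nuclei were counted on 4× images after 5 days of treatment, and values are medians of duplicate plates.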

[2] = compound: CN(C)CC1=CC(=CC=C1)N=C(C2=CC=CC=C2)C3=C(NC4=C3C=CC(=C4)C(=O)N(C)C)O + C[C@@H](Oc1cc(-c2cnn(C3CCNCC3)c2)cnc1N)c1c(Cl)ccc(F)c1Cl [Crizotinib] (partner 1 µM)
Outline: as §1

[3] = compound: CN(C)CC1=CC(=CC=C1)N=C(C2=CC=CC=C2)C3=C(NC4=C3C=CC(=C4)C(=O)N(C)C)O + Cc1nc(Nc2ncc(C(=O)Nc3c(C)cccc3Cl)s2)cc(N2CCN(CCO)CC2)n1 [Dasatinib] (partner 0.075 µM)
Outline: as §1

[4] = compound: CN(C)CC1=CC(=CC=C1)N=C(C2=CC=CC=C2)C3=C(NC4=C3C=CC(=C4)C(=O)N(C)C)O + O=C(CCCCCCC(=O)Nc1ccccc1)NO [Vorinostat] (partner 1 µM)
Outline: as §1

Cell Line | relative viability ([1]; first compound 0.08 µM) | relative viability ([1]; first compound 0.253 µM) | relative viability ([1]; first compound 0.8 µM) | relative viability ([1]; first compound 2.53 µM) | relative viability ([1]; first compound 8 µM) | relative viability ([2]; first compound 0.08 µM) | relative viability ([2]; first compound 0.253 µM) | relative viability ([2]; first compound 0.8 µM) | relative viability ([2]; first compound 2.53 µM) | relative viability ([2]; first compound 8 µM) | relative viability ([3]; first compound 0.08 µM) | relative viability ([3]; first compound 0.253 µM) | relative viability ([3]; first compound 0.8 µM) | relative viability ([3]; first compound 2.53 µM) | relative viability ([3]; first compound 8 µM) | relative viability ([4]; first compound 0.08 µM) | relative viability ([4]; first compound 0.253 µM) | relative viability ([4]; first compound 0.8 µM) | relative viability ([4]; first compound 2.53 µM) | relative viability ([4]; first compound 8 µM)
NCI-H1666 | 0.507 | 0.528 | 0.4 | 0.486 | 0.545 | 1.24 | 1.04 | 0.933 | 1.14 | 1.13 | 0.826 | 0.836 | 0.907 | 0.747 | 0.843 | 1.06 | 1.09 | 0.956 | 1.01 | 1.34
NCI-H1734 | 0.479 | 0.461 | 0.408 | 0.402 | 0.471 | 0.7 | 0.651 | 0.597 | 0.667 | 0.557 | 0.473 | 0.46 | 0.441 | 0.394 | 0.39 | 0.909 | 0.829 | 0.828 | 0.86 | 0.66
NCI-H1755 | 0.46 | 0.433 | 0.349 | 0.418 | 0.381 | 0.792 | 0.897 | 0.789 | 0.758 | 0.825 | 0.487 | 0.45 | 0.374 | 0.402 | 0.348 | 0.739 | 0.768 | 0.717 | 0.715 | 0.766
NCI-H1915 | 0.911 | 0.972 | 0.92 | 0.901 | 0.918 | 0.886 | 0.885 | 0.989 | 0.832 | 0.848 | 0.365 | 0.369 | 0.318 | 0.323 | 0.292 | 0.528 | 0.512 | 0.501 | 0.516 | 0.415
NCI-H1944 | 0.36 | 0.343 | 0.318 | 0.367 | 0.322 | 1.06 | 1.04 | 1.06 | 1.08 | 1.11 | 0.216 | 0.234 | 0.219 | 0.179 | 0.156 | 0.737 | 0.589 | 0.571 | 0.455 | 0.469
NCI-H1975 | 0.306 | 0.324 | 0.245 | 0.257 | 0.275 | 0.969 | 1.07 | 0.842 | 0.859 | 0.822 | 0.372 | 0.364 | 0.341 | 0.348 | 0.31 | 0.709 | 0.669 | 0.705 | 0.661 | 0.604
NCI-H1993 | 0.826 | 0.86 | 0.98 | 0.799 | 0.768 | 0.761 | 0.845 | 0.628 | 0.89 | 0.876 | 0.505 | 0.602 | 0.512 | 0.607 | 0.729 | 0.904 | 0.79 | – | 1.14 | 0.994
NCI-H2009 | 0.792 | 0.766 | 0.795 | 0.803 | 0.541 | 1.11 | 1.03 | 1.09 | 1.01 | 1 | 0.238 | 0.328 | 0.349 | 0.333 | 0.253 | 0.76 | 0.724 | 0.756 | 0.727 | 0.708
NCI-H2023 | 0.263 | 0.238 | 0.222 | 0.177 | 0.21 | 0.797 | 0.698 | 0.67 | 0.563 | 0.498 | 0.538 | 0.549 | 0.576 | 0.445 | 0.466 | 0.594 | 0.685 | 0.765 | 0.368 | 0.589
NCI-H2085 | 0.386 | 0.479 | 0.414 | 0.448 | 0.493 | 0.849 | 0.903 | 0.702 | 0.947 | 1.03 | 0.226 | 0.285 | 0.257 | 0.252 | 0.278 | 0.785 | 0.777 | 0.785 | 0.819 | 0.773
NCI-H2087 | 0.963 | 0.786 | 0.926 | 0.848 | 0.806 | 0.817 | 0.838 | 0.828 | 0.72 | 0.872 | 0.953 | 0.835 | 0.914 | 0.794 | 0.793 | 0.53 | 0.668 | 0.69 | 0.796 | 0.846
NCI-H2126 | 0.451 | 0.518 | 0.451 | 0.541 | 0.507 | 1.04 | 1.01 | 1.07 | 1.01 | 1.01 | 0.717 | 0.676 | 0.631 | 0.607 | 0.635 | 0.822 | 0.767 | 0.475 | 0.8 | 0.554
NCI-H2170 | 0.299 | 0.329 | 0.238 | 0.303 | 0.297 | 1.2 | 1.15 | 0.934 | 1.11 | 0.922 | 0.554 | 0.487 | 0.292 | 0.575 | 0.519 | 0.93 | 0.884 | 0.693 | 0.829 | 0.643
NCI-H2228 | 0.566 | 0.411 | 0.545 | 0.395 | 0.349 | 0.406 | 0.505 | 0.442 | 0.432 | 0.361 | 0.518 | 0.484 | 0.479 | 0.424 | 0.412 | 0.653 | 0.583 | 0.977 | 0.65 | 0.542
NCI-H2347 | 0.868 | 0.637 | 0.697 | 0.663 | 0.6 | 0.734 | 0.727 | 0.73 | 0.703 | 0.58 | 0.347 | 0.326 | 0.293 | 0.252 | 0.2 | 0.604 | 0.736 | 0.617 | 0.539 | 0.565
NCI-H2405 | 0.457 | 0.357 | 0.441 | 0.385 | 0.382 | 0.808 | 0.822 | 0.827 | 0.775 | 0.758 | 0.206 | 0.222 | 0.237 | 0.204 | 0.183 | 1.1 | 1.01 | 1.06 | 0.987 | 1.01
